Test results reported in patent publication US20160137714A1 (Thrasos Innovation, Inc., priority 2014, published 2016).
Positions of bridges follow the written chain, without caps; N, C: chain ends. Non-standard residues stand in square brackets, D forms with d. Residues, ends and D or L forms follow the SMILES beside them. NMeR = CN[C@@H](CCCNC(=N)N)C(=O)O

Assay: Ex-vivo plasma stability
Assay type: in vitro ADME, mouse or rat
Conditions: for remaining at 1 h / remaining at 2 h: fresh plasma 37° C., 1 μM; for remaining at 1 h: 60 min, read-out: Percent remaining 60 min; for remaining at 2 h: 120 min, read-out: Percent remaining 120 min; for stability toward plasma proteolytic cleavage: versus THR-123, rat plasma (FIGS. 3 and 4)
Protocol: Test article is added to fresh mouse or rat plasma at a final in-vial concentration of 1 μM. The peptide is incubated in a water bath at 37° C. over a time course that included the following points (in minutes): 0, 15, 30, 60, 120, 240, and 1440. After the incubation time is completed, a 50 μL aliquot of plasma is removed and proteins are precipitated using a solution containing internal standard (THR-123 at 150 ng/mL) in methanol with 0.5% acetic acid (v/v). The samples are centrifuged at 13,000 RPM for 5 minutes, and a 100 μL aliquot of supernatant is removed and transferred to a 96-well plate containing 200 μL of reconstitution solution (Water/MeOH/Acetic Acid/TFA, 60/40/0.2/0.05, v/v/v/v). A calibration curve and quality control (QC) samples are prepared in parallel in the same manner as the incubation samples. The calibration range for this assay is from 0.02 to 2.0 μM in rat or mouse plasma. The extracted calibrants, QC, and incubation samples are injected onto an AB SCIEX API 2000 LC-MS/MS system. Chromatographic separation is performed using a reversed-phase C18 HPLC column (Ace-3 C18, 30×2.1 mm, 3 μm). The solvent system consists of Milli-Q water, acetonitrile and formic acid. Analyte and internal standard are detected using the multiple reaction monitoring (MRM) scan mode. Calibration curves are generated by using a weighted (1/concentration) quadratic regression analysis of the peak area ratios (analyte/internal standard) versus the nominal concentration of the calibration standards. The concentration of the analyte in the incubation samples is determined by back-calculating the peak area ratios obtained using the quadratic regression.

SMILES | remaining at 1 h | remaining at 2 h | stability toward plasma proteolytic cleavage
CC(C)C[C@@H]1NC(=O)[C@H](C(C)C)NC(=O)[C@H](CO)NC(=O)[C@H](CO)NC(=O)[C@H](CO)NC(=O)[C@H](CC(=O)O)NC(=O)[C@H](CC(=O)O)NC(=O)[C@H](Cc2ccc(O)cc2)NC(=O)[C@H](Cc2ccc(O)cc2)NC(=O)[C@@H](N)CSSC[C@@H](C(=O)N[C@@H](CCCCN)C(=O)N[C@@H](CCCCN)C(=O)N[C@@H](Cc2ccc(O)cc2)C(=O)N[C@@H](CCCNC(=N)N)C(=O)N[C@@H](CO)C(=O)O)NC1=O [GPR-267, Cys-Tyr-Tyr-Asp-Asp-Ser-Ser-Ser-Val-Leu-Cys-Lys-Lys-Tyr-Arg-Ser] (H-CYYDDSSSVLCKKYRS-OH; disulfide 1-11) | 1.5% | 0% | –
CC(C)C[C@@H]1NC(=O)[C@H](C(C)C)NC(=O)[C@H](CO)NC(=O)[C@H](CO)NC(=O)[C@H](CO)NC(=O)[C@H](CC(N)=O)NC(=O)[C@H](CC(=O)O)NC(=O)[C@H](Cc2ccc(O)cc2)NC(=O)[C@H](Cc2ccc(O)cc2)NC(=O)[C@@H](N)CSSC[C@@H](C(=O)N[C@@H](CCCCN)C(=O)N[C@@H](CCCNC(=N)N)C(=O)N[C@H](Cc2ccc(O)cc2)C(=O)N[C@@H](CCCNC(=N)N)C(=O)N[C@@H](CO)C(=O)O)NC1=O [GPR-279, Cys-Tyr-Tyr-Asp-Asn-Ser-Ser-Ser-Val-Leu-Cys-Lys-Arg-D-tyr-Arg-Ser] (H-CYYDNSSSVLCKR[dY]RS-OH; disulfide 1-11) | 89.1% | 77.8% | –
CC(C)C[C@@H]1NC(=O)[C@H](C(C)C)NC(=O)[C@H](CO)NC(=O)[C@H](CO)NC(=O)[C@H](CO)NC(=O)[C@H](CC(N)=O)NC(=O)[C@H](CC(=O)O)NC(=O)[C@H](Cc2ccc(O)cc2)NC(=O)[C@H](Cc2ccc(O)cc2)NC(=O)[C@@H](N)CSSC[C@@H](C(=O)N[C@@H](CCCCN)C(=O)N[C@@H](CCCNC(=N)N)C(=O)N[C@@H](Cc2ccc(O)cc2)C(=O)N[C@@H](CCCNC(=N)N)C(=O)N[C@@H](CO)C(=O)O)NC1=O [GPR-259, Cys-Tyr-Tyr-Asp-Asn-Ser-Ser-Ser-Val-Leu-Cys-Lys-Arg-Tyr-Arg-Ser] (H-CYYDNSSSVLCKRYRS-OH; disulfide 1-11) | 4% | 2.5% | –
CC(C)C[C@@H]1NC(=O)[C@H](C(C)C)NC(=O)[C@H](CO)NC(=O)[C@H](CO)NC(=O)[C@H](CO)NC(=O)[C@H](CC(N)=O)NC(=O)[C@H](CC(=O)O)NC(=O)[C@H](Cc2ccc(O)cc2)NC(=O)[C@H](Cc2ccc(O)cc2)NC(=O)[C@@H](N)CSSC[C@@H](C(=O)N[C@@H](CCCCN)C(=O)N[C@@H](CCCCN)C(=O)N[C@@H](Cc2ccc(O)cc2)C(=O)N[C@@H](CCCNC(=N)N)C(=O)N[C@@H](CO)C(=O)O)NC1=O [GPR-269, Cys-Tyr-Tyr-Asp-Asn-Ser-Ser-Ser-Val-Leu-Cys-Lys-Lys-Tyr-Arg-Ser] (H-CYYDNSSSVLCKKYRS-OH; disulfide 1-11) | 9.9% | 6.8% | –
CC(C)C[C@@H]1NC(=O)[C@H](C(C)C)NC(=O)[C@H](CO)NC(=O)[C@H](CO)NC(=O)[C@H](CO)NC(=O)[C@H](CC(N)=O)NC(=O)[C@H](CC(=O)O)NC(=O)[C@H](Cc2ccc(O)cc2)NC(=O)[C@H](Cc2ccc(O)cc2)NC(=O)[C@@H](N)CSSC[C@@H](C(=O)N[C@@H](CCCCN)C(=O)N[C@@H](CCCCN)C(=O)N[C@H](Cc2ccc(O)cc2)C(=O)N[C@@H](CCCNC(=N)N)C(=O)N[C@@H](CO)C(=O)O)NC1=O [GPR-296, Cys-Tyr-Tyr-Asp-Asn-Ser-Ser-Ser-Val-Leu-Cys-Lys-Lys-D-tyr-Arg-Ser] (H-CYYDNSSSVLCKK[dY]RS-OH; disulfide 1-11) | 97.5% | 86.4% | –
CC(C)C[C@@H]1NC(=O)[C@H](C(C)C)NC(=O)[C@H](CO)NC(=O)[C@H](CO)NC(=O)[C@H](CO)NC(=O)[C@H](CC(N)=O)NC(=O)[C@H](CC(=O)O)NC(=O)[C@H](Cc2ccc(O)cc2)NC(=O)[C@H](Cc2ccc(O)cc2)NC(=O)[C@@H](N)CSSC[C@@H](C(=O)N[C@@H](CCCCN)C(=O)N[C@@H](CCCNC(=N)N)C(=O)N[C@@H](Cc2ccc(O)cc2)C(=O)N(C)[C@@H](CCCNC(=N)N)C(=O)N[C@@H](CO)C(=O)O)NC1=O [GPR-398, Cys-Tyr-Tyr-Asp-Asn-Ser-Ser-Ser-Val-Leu-Cys-Lys-Arg-Tyr-(Nα-Me)Arg-Ser] (H-CYYDNSSSVLCKRY[NMeR]S-OH; disulfide 1-11) | 79.2% | 68.1% | –
CC(C)C[C@@H]1NC(=O)[C@H](C(C)C)NC(=O)[C@H](CO)NC(=O)[C@H](CO)NC(=O)[C@H](CO)NC(=O)[C@H](CC(=O)O)NC(=O)[C@H](CC(=O)O)NC(=O)[C@H](Cc2ccc(O)cc2)NC(=O)[C@H](Cc2ccc(O)cc2)NC(=O)[C@@H](N)CSSC[C@@H](C(=O)N[C@@H](CCCCN)C(=O)N[C@@H](CCCCN)C(=O)N[C@H](Cc2ccc(O)cc2)C(=O)N[C@@H](CCCNC(=N)N)C(=O)N[C@@H](CO)C(=O)O)NC1=O [GPR-295, Cys-Tyr-Tyr-Asp-Asp-Ser-Ser-Ser-Val-Leu-Cys-Lys-Lys-D-tyr-Arg-Ser] (H-CYYDDSSSVLCKK[dY]RS-OH; disulfide 1-11) | 92.2% | 94.7% | –

More lines, now with the values ahead:

remaining at 1 h | remaining at 2 h | stability toward plasma proteolytic cleavage | SMILES
58.5% | 46.1% | enhanced | CC(C)C[C@@H]1NC(=O)[C@H](C(C)C)NC(=O)[C@H](CC(N)=O)NC(=O)[C@H](CO)NC(=O)[C@H](CO)NC(=O)[C@H](CC(=O)O)NC(=O)[C@H](CC(=O)O)NC(=O)[C@H](Cc2ccccc2)NC(=O)[C@H](Cc2ccc(O)cc2)NC(=O)[C@@H](N)CSSC[C@@H](C(=O)N[C@@H](CCCCN)C(=O)N[C@@H](CCCCN)C(=O)N[C@@H](Cc2ccc(O)cc2)C(=O)N[C@H](CCCNC(=N)N)C(=O)N[C@@H](CO)C(=O)O)NC1=O [GPR-389, Cys-Tyr-Phe-Asp-Asp-Ser-Ser-Asn-Val-Leu-Cys-Lys-Lys-Tyr-D-arg-Ser] (H-CYFDDSSNVLCKKY[dR]S-OH; disulfide 1-11)
92% | 89.3% | – | CC(C)C[C@@H]1NC(=O)[C@H](C(C)C)NC(=O)[C@H](CC(N)=O)NC(=O)[C@H](CO)NC(=O)[C@H](CO)NC(=O)[C@H](CC(=O)O)NC(=O)[C@H](CC(=O)O)NC(=O)[C@H](Cc2ccccc2)NC(=O)[C@H](Cc2ccc(O)cc2)NC(=O)[C@@H](N)CSSC[C@@H](C(=O)N[C@@H](CCCCN)C(=O)N[C@@H](CCCNC(=N)N)C(=O)N[C@H](Cc2ccc(O)cc2)C(=O)N[C@@H](CCCNC(=N)N)C(=O)N[C@@H](CO)C(=O)O)NC1=O [GPR-397, Cys-Tyr-Phe-Asp-Asp-Ser-Ser-Asn-Val-Leu-Cys-Lys-Arg-D-tyr-Arg-Ser] (H-CYFDDSSNVLCKR[dY]RS-OH; disulfide 1-11)
3.5% | 1.6% | – | CC(C)C[C@@H]1NC(=O)[C@H](C(C)C)NC(=O)[C@H](CC(N)=O)NC(=O)[C@H](CO)NC(=O)[C@H](CO)NC(=O)[C@H](CC(=O)O)NC(=O)[C@H](CC(=O)O)NC(=O)[C@H](Cc2ccccc2)NC(=O)[C@H](Cc2ccc(O)cc2)NC(=O)[C@@H](N)CSSC[C@@H](C(=O)N[C@@H](CCCCN)C(=O)N[C@@H](CCCNC(=N)N)C(=O)N[C@@H](Cc2ccc(O)cc2)C(=O)N[C@@H](CCCNC(=N)N)C(=O)N[C@@H](CO)C(=O)O)NC1=O [GPR-293, Cys-Tyr-Phe-Asp-Asp-Ser-Ser-Asn-Val-Leu-Cys-Lys-Arg-Tyr-Arg-Ser] (H-CYFDDSSNVLCKRYRS-OH; disulfide 1-11)
91% | 82.4% | enhanced | CC(C)C[C@@H]1NC(=O)[C@H](C(C)C)NC(=O)[C@H](CC(N)=O)NC(=O)[C@H](CO)NC(=O)[C@H](CO)NC(=O)[C@H](CC(=O)O)NC(=O)[C@H](CC(=O)O)NC(=O)[C@H](Cc2ccccc2)NC(=O)[C@H](Cc2ccc(O)cc2)NC(=O)[C@@H](N)CSSC[C@@H](C(=O)N[C@@H](CCCCN)C(=O)N[C@@H](CCCCN)C(=O)N[C@@H](Cc2ccc(O)cc2)C(=O)N(C)[C@@H](CCCNC(=N)N)C(=O)N[C@@H](CO)C(=O)O)NC1=O [GPR-396, Cys-Tyr-Phe-Asp-Asp-Ser-Ser-Asn-Val-Leu-Cys-Lys-Lys-Tyr-(Na-Me)Arg-Ser] (H-CYFDDSSNVLCKKY[NMeR]S-OH; disulfide 1-11)
77.6% | 64.2% | enhanced | CC(C)C[C@@H]1NC(=O)[C@H](C(C)C)NC(=O)[C@H](CC(N)=O)NC(=O)[C@H](CO)NC(=O)[C@H](CO)NC(=O)[C@H](CC(=O)O)NC(=O)[C@H](CC(=O)O)NC(=O)[C@H](Cc2ccccc2)NC(=O)[C@H](Cc2ccc(O)cc2)NC(=O)[C@@H](N)CSSC[C@@H](C(=O)N[C@@H](CCCCN)C(=O)N[C@H](CCCCN)C(=O)N[C@@H](Cc2ccc(O)cc2)C(=O)N[C@@H](CCCNC(=N)N)C(=O)N[C@@H](CO)C(=O)O)NC1=O [GPR-388, Cys-Tyr-Phe-Asp-Asp-Ser-Ser-Asn-Val-Leu-Cys-Lys-(D)lys-Tyr-Arg-Ser] (H-CYFDDSSNVLCK[dK]YRS-OH; disulfide 1-11)
